# US8551981B2, “Furo[3,2-d]pyrimidine compounds” (AbbVie Inc., priority 2010, dated 2013)
# System: Fcγ receptor signaling
# Experiment: Reverse Passive Arthus model
# Type: in vivo
# Conditions: Rattus norvegicus, single dose 10 mg/kg
# Protocol: Acute in vivo measurement of Fcγ receptor signaling inhibition of the compounds is measured using the:
# Reverse Passive Arthus Model
# On day 0 OVA was made up at a concentration of 17 mg/mL, in PBS by rocking gently until a solution was formed. 2% Evans Blue solution (Sigma Aldrich, cat# E2129) was then added to double the volume for a final concentration of 8.5 mg/mL of OVA and 1% Evans Blue dye. Anti-OVA antibody (Abazyme), stock concentration 10 mg/mL, was thawed and a 4 mg/mL solution was made with PBS. Compounds were made up in 0.5% HPMC with 0.02% Tween 80, and vortexed for about 15 seconds followed by homogenization for a minimum of about 2 min at 28,000 RPM until there was a fine particulate suspension with no clumps of compound. Rats were weighed and dosed with compound at a pre-determined time based on compound Tmax determined in pharmacokinetic studies. Animals were then placed under general anesthesia with a 5% isoflourane and oxygen mixture and shaved. Using a 0.5 cc insulin syringe two sites were injected i.d., 1 site with 100 μL of 4.0 mg/mL of anti-OVA antibody, and 1 site with 100 μL of sterile PBS. Each injection site was circled with a permanent marker to mark the site. Immediately following i.d. injections, animals were injected with 200 μL of the OVA (10 mg/kg)/1% Evans Blue mixture, i.v., using a 0.5 cc insulin syringe. About 4 h post injection animals were euthanized, bled via cardiac puncture and blood was put into plasma separation tubes. Blood samples were stored on ice until centrifugation (within about 2 h of collection). Each injection site was removed with a disposable biopsy punch (Acuderm Acu-Punch Disposable 12 mm), cut into four pieces and placed in a pre-labeled 2 mL eppendorf tube. One mL of DMF (99%) was added to each biopsy tube and they were placed in a heat block at about 50° C. for about 24 h. After incubation, 100 μL of each sample was transferred to a 96 well flat bottom plate and read at 620 nm on a plate reader using the Softmax software. Background was removed by subtracting the OD from the PBS injected site from the OD of the anti-OVA injected site for each individual animal. Plasma samples were spun down in a microcentrifuge (Eppendorf 5415R) for about 5 min at 16.1 rcf. 200 μL of plasma was placed in a 1.7 mL eppendorf tube for drug level measurements and tubes were stored at about −80° C. until evaluation.
row,Structure (SMILES),inhibition in vivo at 10 mg/kg [%]
1,CC1(C)Oc2ccc(Nc3nc(N4CCC5(CCCNC5)CC4)c4occc4n3)cc2NC1=O [C.1.59],20
2,"CC1(CN)CCN(c2nc(Nc3ccc4cn[nH]c4c3)nc3ccoc23)CC1 [Example #12, 4-(4-(Aminomethyl)-4-methylpiperidin-1-yl)-N-(1H-indazol-6-yl)furo[3,2-d]pyrimidin-2-amine]",8
3,CC(C)CNc1nc(Nc2ccc3c(c2)NC(=O)C3(C)C)nc2ccoc12 [B.5.80],46
4,"CC1(C)C(=O)Nc2cc(Nc3nc(NCC(F)F)c4occc4n3)ccc21 [Example #16, 6-(4-(2,2-Difluoroethylamino)furo[3,2-d]pyrimidin-2-ylamino)-3,3-dimethylindolin-2-one]",63
5,O=C1CCCc2cc(Nc3nc(NC4CC4)c4occc4n3)ccc2N1 [B.5.56],49
6,CC(C)(C#N)c1ccc(Nc2nc(NC3CC3)c3occc3n2)cc1 [B.5.42],27
7,Cc1n[nH]c2cc(Nc3nc(N[C@@H]4[C@H](C(N)=O)[C@H]5C=C[C@@H]4C5)c4occc4n3)ccc12 [C.1.52],8
8,"Cc1cc(Nc2nc(NC3CC3)c3occc3n2)cc2[nH]ncc12 [Example #AC.1, N^4-cyclopropyl-N^2-(4-methyl-1H-indazol-6-yl)furo[3,2-d]pyrimidine-2,4-diamine]",43
9,CC1(CN)CCN(c2nc(Nc3ccc4c(c3)NC(=O)C(C)(C)O4)nc3ccoc23)CC1 [C.1.33],30
10,CNCC1CCN(c2nc(Nc3ccc4c(c3)NC(=O)C(C)(C)S4)nc3ccoc23)CC1 [C.1.71],85
11,CC1(C)Oc2ccc(Nc3nc(N4CC[C@@H](CN)[C@H](O)C4)c4occc4n3)cc2NC1=O [Example #AM.1.2],-16
12,CC1(C)Oc2ccc(Nc3nc(N4CCC(O)(CN)CC4)c4occc4n3)cc2NC1=O [Example #AM.1.1],12
13,N#Cc1n[nH]c2cc(Nc3nc(NC4CC4)c4occc4n3)ccc12 [J.1.8],9
14,Cn1ncc2cc(Nc3nc(N4CCC5(CCNC5)CC4)c4occc4n3)ccc21 [C.1.40],40
15,Cc1n[nH]c2cc(Nc3nc(N4CCC(C)(CN)CC4)c4occc4n3)ccc12 [C.1.31],0
16,"CN(C)C(=O)c1n[nH]c2cc(Nc3nc(NC4CC4)c4occc4n3)ccc12 [J.1, 6-(4-(Cyclopropylamino)furo[3,2-d]pyrimidin-2-ylamino)-N,N-dimethyl-1H-indazole-3-carboxamide]",-2
17,CNCC1CCN(c2nc(Nc3ccc4c(C)n[nH]c4c3)nc3ccoc23)CC1 [C.1.48],1
18,CC1(C)C(=O)Nc2cc(Nc3nc(NC4CCC4)c4occc4n3)ccc21 [B.5.108],56
19,"FC(F)(F)CNc1nc(Nc2ccc3cn[nH]c3c2)nc2ccoc12 [Example #13, N^2-(1H-Indazol-6-yl)-N^4-(2,2,2-trifluoroethyl)furo[3,2-d]pyrimidine-2,4-diamine]",70
20,"O=C(NC1CC1)c1n[nH]c2cc(Nc3nc(NC4CC4)c4occc4n3)ccc12 [E.2.1, N-Cyclopropyl-6-(4-(cyclopropylamino)furo[3,2-d]pyrimidin-2-ylamino)-1H-indazole-3-carboxamide]",-1

row,Structure (SMILES),inhibition in vivo at 10 mg/kg [%]
1,CC1(C)Oc2ccc(Nc3nc(N4CCC5(CCCNC5)C4)c4occc4n3)cc2NC1=O (stereo not shown) [C.1.36],-31
2,CNCC1CCN(c2nc(Nc3ccc4c(cnn4C)c3)nc3ccoc23)CC1 [C.1.49],-20
3,CC1(CN)CCN(c2nc(Nc3ccc4c(c3)NC(=O)C4(C)C)nc3ccoc23)CC1 [C.1.32],8
4,CC1(C)C(=O)Nc2cc(Nc3nc(N4CCC(CNCCF)CC4)c4occc4n3)ccc21 [B.5.77],20
5,O=C1Nc2cc(Nc3nc(NC4CC4)c4occc4n3)ccc2OC1(F)F [B.5.40],3
6,CC1(C)Cc2ccc(Nc3nc(NC4CC4)c4occc4n3)cc2NC1=O [B.5.41],42
7,CNCC1CCN(c2nc(Nc3ccc4cn[nH]c4c3)nc3ccoc23)CC1 [C.1.23],-15
8,O=c1[nH]c2cc(Nc3nc(NC4CC4)c4occc4n3)ccc2cc1CO [B.5.50],0
9,CC1(C)Oc2ccc(Nc3nc(Nc4ccc5c(c4)NC(=O)C(C)(C)O5)c4occc4n3)cc2NC1=O [B.5.62],16
10,"CC1(C)C(=O)Nc2cc(Nc3nc(NC4CC4)c4occc4n3)ccc21 [Example #11, 6-(4-(Cyclopropylamino)furo[3,2-d]pyrimidin-2-ylamino)-3,3-dimethylindolin-2-one]",65
11,CNCC1CCN(c2nc(Nc3ccc(C(C)(C)C#N)cc3)nc3ccoc23)CC1 [C.1.57],12
12,CC1(C)Oc2ccc(Nc3nc(N4CCC5(CCNC5)CC4)c4occc4n3)cc2NC1=O [C.1.58],-18
13,Clc1cc(Nc2nc(NC3CCC3)c3occc3n2)ccc1N1CCOCC1 [B.5.2],55
14,CC1(C)Oc2ccc(Nc3nc(N4CCC(CNCCS(C)(=O)=O)CC4)c4occc4n3)cc2NC1=O [B.5.65],9
15,CCCC(=O)Nc1ccc(Nc2nc(N3CCC(CN)CC3)c3occc3n2)cc1 [C.1.8],0
16,CNCC1CCN(c2nc(Nc3ccc4c(c3)NC(=O)C4(C)C)nc3ccoc23)CC1 [C.1.51],-7
17,O=C1COc2ccc(Nc3nc(N4CCC(CNCC(F)F)CC4)c4occc4n3)cc2N1 [B.5.84],38
18,"O=C1CCc2ccc(Nc3nc(NC4CC4)c4occc4n3)cc2N1 [Example #7, 7-(4-(Cyclopropylamino)furo[3,2-d]pyrimidin-2-ylamino)-3,4-dihydroquinolin-2(1H)-one]",73
19,Cc1cc2ccc(Nc3nc(NC4CC4)c4occc4n3)cc2[nH]c1=O [B.5.99],16
20,O=c1ccc2ccc(Nc3nc(NC4CC4)c4occc4n3)cc2o1 [B.5.52],0

row,Structure (SMILES),inhibition in vivo at 10 mg/kg [%]
1,NCC1CCN(c2nc(Nc3ccc4c(c3)NC(=O)CC4)nc3ccoc23)CC1 [C.1.61],20
2,CC1(C)C(=O)Nc2cc(Nc3nc(N4CCC(CNCCS(C)(=O)=O)CC4)c4occc4n3)ccc21 [B.5.68],1
3,CC(=O)N(C)c1ccc(Nc2nc(N3CCC(CN)CC3)c3occc3n2)cc1 [C.1.7],22
4,CC1(C)C(=O)Nc2cc(Nc3nc(N[C@@H]4[C@H](C(N)=O)[C@H]5C=C[C@@H]4C5)c4occc4n3)ccc21 [B.5.61],1
5,"Cc1n[nH]c2cc(Nc3nc(N4CCC(O)(CN)CC4)c4occc4n3)ccc12 [Example #AM.1, 4-(Aminomethyl)-1-(2-(3-methyl-1H-indazol-6-ylamino)furo[3,2-d]pyrimidin-yl)piperidin-4-ol]",3
6,FC(F)(F)CNc1nc(Nc2ccc(N3CCOCC3)c(Cl)c2)nc2ccoc12 [B.5.13],17
7,CC1(C)C(=O)Nc2cc(Nc3nc(N4CCC(O)(CN)CC4)c4occc4n3)ccc21 [Example #AM.1.3],15
8,CNCC1CCN(c2nc(Nc3ccc(N4CCN(C(C)=O)CC4)cc3)nc3ccoc23)CC1 [C.1.2],-17
9,"c1cc2nc(Nc3ccc4cn[nH]c4c3)nc(NC3CC3)c2o1 [Example #15, N^4-Cyclopropyl-N^2-(1H-indazol-6-yl)furo[3,2-d]pyrimidine-2,4-diamine]",45
10,Cn1ncc2cc(Nc3nc(N4CCC5(CCCNC5)CC4)c4occc4n3)ccc21 [C.1.43],56
11,Clc1cc(Nc2nc(N3CCC4(CCNC4)CC3)c3occc3n2)ccc1N1CCOCC1 [C.1.44],54
12,CCCNc1nc(Nc2ccc3c(c2)NC(=O)C3(C)C)nc2ccoc12 [B.5.81],16
13,Cc1n[nH]c2cc(Nc3nc(N4CCC5(CC4)CNCCO5)c4occc4n3)ccc12 [Q.1.4],33
14,Cc1n[nH]c2cc(Nc3nc(N4CCC(CNCCS(C)(=O)=O)CC4)c4occc4n3)ccc12 [C.1.60],24
15,FC(F)CNCC1CCN(c2nc(Nc3ccc(N4CCOCC4)c(Cl)c3)nc3ccoc23)CC1 [B.5.85],52
16,c1cc(-c2n[nH]c3cc(Nc4nc(NC5CC5)c5occc5n4)ccc23)ccn1 [J.1.7],12
17,"Cc1n[nH]c2cc(Nc3nc(NC4CC4)c4occc4n3)ccc12 [Example #3, N^4-Cyclopropyl-N^2-(3-methyl-1H-indazol-6-yl)furo[3,2-d]pyrimidine-2,4-diamine]",75
18,CC(N)C1CCN(c2nc(Nc3ccc4c(c3)NC(=O)C(C)(C)O4)nc3ccoc23)CC1 (stereo not shown) [C.1.62],-6
